Laboratory results taken from patent publication US20220175825A1, “COMPOSITION AND ASSOCIATED DELIVERY DEVICE FOR HYDROGEN THERAPY” (UNIVERSITE GRENOBLE ALPES, priority 2019, published 2022).

What was measured:
[1] = cited from earlier work
[2] = pH of the PBS solution following dissolution of the hydride; type: physicochemical; settings: after dissolution
[3] = kinetics of dihydrogen release on dissolution of a hydride composition in 30 mL PBS solution, according to pH; type: physicochemical; settings: substantially 13 mg hydride in 30 mL PBS

| SMILES | saturation limit concentration in water [1] | pH of the PBS solution following the dissolution of the hydride [2] | required time for reaching the release of about 1 ppm of dihydrogen after immersion ([3]; pH 5.8) | required time for reaching the release of about 1 ppm of dihydrogen after immersion ([3]; pH 7.4) | required time for reaching the release of about 1 ppm of dihydrogen after immersion ([3]; pH 8.45) |
| --- | --- | --- | --- | --- | --- |
| [HH] [dihydrogen] | 1.57 ppm | – | – | – | – |
| [H-].[H-].[Mg+2] [magnesium hydride] | – | 10 | about 30 seconds | ~4 min | ~5 min |
